Laboratory results taken from ChEMBL document CHEMBL5620390, “A novel multifunctional mitochondrion-targeting NIR fluorophore probe inhibits tumour proliferation and metastasis through the PPARγ/ROS/β-catenin pathway” (Eur J Med Chem, 2023).
Active and inactive are the calls of the source. No cut-off for these calls is given here.

Tests used:
B16-F10 [1] = assay: Inhibition of Wnt/beta-catenin signaling in mouse B16-F10 cells assessed as reduction in beta-catenin expression at 1.25 uM preincubated with rosiglitazone for 24 hrs followed by compound addition and measured after 24 hrs in presence of H2O2; format: cell-based
B16-F10 [2] = assay: Inhibition of cell metastasis in mouse B16-F10 cells assessed as reduction in MMP9 protein level at 0.31 to 1.25 uM after 24 hrs by Western blotting analysis; format: functional, cell-based; conditions: dose 0.31-1.25 µM
B16-F10 [3] = assay: Induction of ROS generation in mouse B16-F10 cells assessed as reduction in PPARgamma expression level at 1.25 uM preincubated with rosiglitazone for 24 hrs followed by compound addition for 24 hrs; format: functional, cell-based
B16-F10 [4] = assay: Induction of ROS generation in mouse B16-F10 cells assessed as reduction in SOD2 expression level at 0.31 to 1.25 uM incubated for 24 hrs; format: functional, cell-based; conditions: dose 0.31-1.25 µM
B16-F10 [5] = assay: Inhibition of Wnt/beta-catenin signaling in mouse B16-F10 cells assessed as reduction in beta-catenin expression at 1.25 uM incubated for 24 hrs; format: cell-based
B16-F10 [6] = assay: Induction of cell cycle arrest in mouse B16-F10 cells assessed as reduction in Cdk2 protein level at 0.31 to 1.25 uM after 24 hrs by Western blotting analysis; format: functional, cell-based; conditions: dose 0.31-1.25 µM
B16-F10 [7] = assay: Induction of cell cycle arrest in mouse B16-F10 cells assessed as P21 protein accumulation at 0.31 to 1.25 uM after 24 hrs by Western blotting analysis; format: functional, cell-based; conditions: dose 0.31-1.25 µM
A-375 [8] = assay: Antiproliferative activity against human A-375 cells assessed as inhibition of cell growth at 0.04 to 10 uM by MTT assay; format: functional, cell-based; conditions: dose 0.04-10 µM, time 24-72 hrs, TDE = time-dependent effect
A-375 [9] = assay: Induction of cell cycle arrest in human A-375 cells assessed as reduction in cyclin E1 protein level at 0.31 to 1.25 uM after 24 hrs by Western blotting analysis; format: functional, cell-based; conditions: dose 0.31-1.25 µM
[10] = Toxicity in C57BL/6J mouse inoculated with mouse B16-F10 cells assessed as effect on heart morphology at 2 mg/kg, ip administered every other day for 22 days by H and E staining based assay; format: organism-based; conditions: in vivo, 528 h, time 22 day
[11] = Drug uptake in human A-375 cells mitochondria at 2.5 uM incubated for 45 mins by mito-tracker green dye based confocal laser scanning fluorescence microscopy analysis; format: ADME; conditions: a-375, 0.75 h
A549 = assay: Antiproliferative activity against human A549 cells assessed as inhibition of cell growth at 0.31 uM after 72 hrs by MTT assay; format: functional; set-up: scale not given: the % may be the effect or the level left
B16-F10 [12] = assay: Inhibition of cell metastasis in mouse B16-F10 cells assessed as reduction in MMP2 protein level at 0.31 to 1.25 uM after 24 hrs by Western blotting analysis; format: functional, cell-based; conditions: dose 0.31-1.25 µM
A-375 [13] = assay: Induction of cell cycle arrest in human A-375 cells assessed as reduction in Cdk2 protein level at 0.31 to 1.25 uM after 24 hrs by Western blotting analysis; format: functional, cell-based; conditions: dose 0.31-1.25 µM
[14] = Cytotoxicity against mouse B16-F10 cells assessed as cell viability at 40 uM incubated for 24 hrs by MTT assay; format: toxicity, cell-based; conditions: read-out: Activity
B16-F10 [15] = assay: Induction of ROS generation in mouse B16-F10 cells assessed as reduction in PPARgamma expression level at 1.25 uM incubated for 24 hrs; format: functional, cell-based
A-375 [16] = assay: Induction of cell cycle arrest in human A-375 cells assessed as reduction in Cdk4 protein level at 0.31 to 1.25 uM after 24 hrs by Western blotting analysis; format: functional, cell-based; conditions: dose 0.31-1.25 µM
B16-F10 [17] = assay: Induction of cell cycle arrest in mouse B16-F10 cells assessed as accumulation of cells at G0/G1 phase incubated for 24 hrs by PI staining based flow cytometry analysis (reference value: 10.93%); format: functional
B16-F10 [18] = assay: Antitumor activity against mouse B16-F10 cells inoculated in C57BL/6J mouse assessed as reduction in tumor growth at 0.5 to 2 mg/kg, ip administered every other day and measured on day 22; format: functional, organism-based; conditions: dose 0.5-2 mg/kg, time 22.0 day
B16-F10 [19] = assay: Induction of mitochondrial damage in mouse B16-F10 cells assessed as mitochondrial swelling at 2.5 uM incubated for 24 hrs by TEM analysis; format: functional, cell-based
[20] = Drug uptake in mouse B16-F10 cells mitochondria at 2.5 uM incubated for 25 mins by mito-tracker green dye based confocal laser scanning fluorescence microscopy analysis; format: ADME; conditions: b16-f10, 25 min
B16-F10 [21] = assay: Antiproliferative activity against mouse B16-F10 cells assessed as inhibition of cell growth after 24 to 72 hrs by MTT assay; format: functional, cell-based
[22] = Toxicity in C57BL/6J mouse inoculated with mouse B16-F10 cells assessed as reduction in body weight at 2 mg/kg, ip administered every other day and measured after 14 days; format: organism-based; set-up: scale not given: the % may be the effect or the level left; conditions: in vivo, 336 h, time 14 day
B16-F10 [23] = assay: Antitumor activity against mouse B16-F10 cells inoculated in C57BL/6J mouse assessed as reduction in PPARgamma expression at 0.5 to 2 mg/kg, ip administered every other day and measured on day 22 by immunohistochemistry analysis; format: functional, organism-based; conditions: dose 0.5-2 mg/kg, time 22.0 day
[24] = Toxicity in C57BL/6J mouse inoculated with mouse B16-F10 cells assessed as effect on liver morphology at 2 mg/kg, ip administered every other day for 22 days by H and E staining based assay; format: organism-based; conditions: in vivo, 528 h, time 22 day
[25] = Drug uptake in human A-375 cells assessed as fluorescence intensity at 2.5 uM incubated for 1 hr by confocal laser scanning microscopic analysis; format: ADME, cell-based; conditions: a-375, 1 h
[26] = Drug uptake in mouse B16-F10 cells assessed as fluorescence intensity at 2.5 uM incubated for 1 hr by confocal laser scanning microscopic analysis; format: ADME, cell-based; conditions: b16-f10, 1 h
[27] = Renal toxicity in C57BL/6J mouse inoculated with mouse B16-F10 cells assessed as change in BUN level at 2 mg/kg, ip administered every other day for 22 days; format: organism-based; conditions: in vivo, 528 h, time 22 day
B16-F10 [28] = assay: Inhibition of tumor metastasis in mouse B16-F10 cells assessed as reduction in wound healing after 24 hrs; format: functional, cell-based; conditions: dose 0.08-1.25 µM
B16-F10 [29] = assay: Induction of mitochondrial damage in mouse B16-F10 cells assessed as mitochondrial vacuolation at 2.5 uM incubated for 24 hrs by TEM analysis; format: functional, cell-based
B16-F10 [30] = assay: Induction of mitochondrial damage in mouse B16-F10 cells assessed as change in mitochondrial morphology at 2.5 uM incubated for 24 hrs by TEM analysis; format: functional, cell-based
MDA-MB-231 = assay: Antiproliferative activity against human MDA-MB-231 cells assessed as inhibition of cell growth at 0.31 uM after 72 hrs by MTT assay; format: functional; set-up: scale not given: the % may be the effect or the level left
[31] = Toxicity in C57BL/6J mouse inoculated with mouse B16-F10 cells assessed as reduction in body weight at 2 mg/kg, ip administered every other day and measured after 16 days; format: organism-based; conditions: in vivo, 384 h, time 16 day
A-375 [32] = assay: Induction of cell cycle arrest in human A-375 cells assessed as P27 protein accumulation at 0.31 to 1.25 uM after 24 hrs by Western blotting analysis; format: functional, cell-based; conditions: dose 0.31-1.25 µM
B16-F10 [33] = assay: Induction of ROS generation in mouse B16-F10 cells assessed as reduction in SOD2 expression level at 1.25 uM preincubated with rosiglitazone for 24 hrs followed by compound addition for 24 hrs; format: functional, cell-based

For `CC[N+]1=C(/C=C/C2=C(Cl)C(=C/C=C3\N(CCCCCC(=O)O/C(=N/C4CCCCC4)NC4CCCCC4)c4ccccc4C3(C)C)/CCC2)C(C)(C)c2ccccc21.[Br-]`, which inhibition (B16-F10 [1]) is on record?
The inhibition was “inactive”.

And the inhibition (B16-F10 [2])?
Its inhibition is “Active”.

What about the Activity (B16-F10 [3]) of the same compound?
The Activity was “inactive”.

What about the Activity (B16-F10 [4]) of the same compound?
Its Activity is “Active”.

What about the inhibition (B16-F10 [5]) of the same compound?
The inhibition was “Active”.

What about the Activity (B16-F10 [6]) of the same compound?
The Activity was “Active”.

And the Activity (B16-F10 [7])?
Its Activity is “Active”.

What about the Activity (A-375 [8]) of the same compound?
The Activity was “Tde”.

And the Activity (A-375 [9])?
Its Activity is “Active”.

And the Activity [10]?
Its Activity is “Non-Toxic”.

What about the Drug uptake [11] of the same compound?
Its Drug uptake is “Active”.

What about the Activity (A549) of the same compound?
Its Activity is 70%.

What about the inhibition (B16-F10 [12]) of the same compound?
The inhibition was “Active”.

And the Activity (A-375 [13])?
Its Activity is “Active”.

And the viability at 24 h, 40 µM [14]?
Its viability at 24 h, 40 µM is 90%.

And the Activity (B16-F10 [15])?
The Activity was “Active”.

What about the Activity (A-375 [16]) of the same compound?
The Activity was “Active”.

And the Activity (B16-F10 [17])?
The Activity was 40.75%.

And the Activity (B16-F10 [18])?
Its Activity is “Active”.

What about the Activity (B16-F10 [19]) of the same compound?
Its Activity is “Active”.

What about the Drug uptake [20] of the same compound?
Its Drug uptake is “Active”.

What about the IC50 (B16-F10 [21]) of the same compound?
Its IC50 is 410 nM.

And the Activity (B16-F10 [21]; time 24-72 hrs)?
The Activity was “Dose-Dependent Effect”.

What about the Activity [22] of the same compound?
Its Activity is 13.5%.

What about the Activity (B16-F10 [23]) of the same compound?
Its Activity is “Active”.

And the Activity [24]?
Its Activity is “Non-Toxic”.

What about the Drug uptake [25] of the same compound?
The Drug uptake was “Active”.

What about the Drug uptake [26] of the same compound?
The Drug uptake was “Active”.

What about the Activity [27] of the same compound?
Its Activity is “Non-Toxic”.

And the inhibition (B16-F10 [28])?
Its inhibition is “Dose-Dependent Effect”.

And the Activity (B16-F10 [29])?
The Activity was “Active”.

What about the Activity (B16-F10 [30]) of the same compound?
The Activity was “Active”.

What about the Activity (MDA-MB-231) of the same compound?
The Activity was 70%.

And the Activity [31]?
Its Activity is “Non-Toxic”.

What about the Activity (A-375 [32]) of the same compound?
The Activity was “Active”.

And the Activity (B16-F10 [33])?
The Activity was “inactive”.
